This passage reports IC50 results from patent publication US20140066431A1, “Benzoxazepines as Inhibitors of PI3K/mTOR and Methods of Their Use and Manufacture” (Exelixis, Inc., priority 2010, published 2014).

By IC50 is commonly meant the point on the concentration scale where inhibition reaches its midpoint.

The test system of the experiment is NCI-H460 (PI3K-E545K/KRAS-Q61H). Kind of experiment: pAKT (T308) ELISA assay, NCI-H460. It counts as cell-based. The following applies: Homo sapiens, PI3KαE545K, read-out: Cellular pAKT (T308) IC50 NCI-H460. The method, then:
In another embodiment, the pAKT ELISA Assay was performed by seeding cells onto 96-well plates (Corning, 3904) in their respective growth media at the densities listed in Table 3. Cells were incubated at 37° C., 5% CO2 for 48 h (except MDA-MB-453 cells which were cultured in the absence of CO2). Compounds were serially diluted in DMSO and subsequently diluted in serum-free DMEM. Test compounds were added to cells in serum-free DMEM at a final concentration of 0.3% DMSO and incubated for 3 h. Cells were lysed with 130 μL of ice-cold RIPA lysis buffer (50 mM Tris-HCl, pH 7.5; 0.5% sodium deoxycholic acid; 1% Triton X-100; 0.1% SDS; 150 mM NaCl) with protease and phosphatase inhibitors (1 mM EDTA, 1 mM NaF, 20 mM β-glycerophosphate, 1 mM Na-orthovanadate, Complete-Mini EDTA-free, Roche, 11836170001, and Phosphatase Inhibitor Cocktail I, Sigma, P2850), directly in 96-well plates. Cells were lysed on ice for 60-120 min at 4° C. The supernatants were added directly to capture ELISA plates previously pre-coated with rabbit anti-AKT capture antibody. […] The wells were measured for luminescence using a Wallac plate reader at wavelength of 560 nm. After normalization of pAKT signal to total AKT1 signal, IC50 values were determined relative to the DMSO-treated control.
For orientation: ELISA stands for enzyme-linked immunosorbent assay.

On to `Cc1cc(C(C)Nc2ccccc2)c2nc(N3CCOCC3)cc(=O)n2c1` (stereo not shown) [TGX-221, 7-methyl-2-(4-morpholinyl)-9-[1-(phenylamino)ethyl]-4H-pyrido[1,2-a]pyrimidin-4-one], for which the concentration for half-maximal inhibition (IC50) was > 30 µM.
